Values of other authors in patent US20250108061A1, “METHOD FOR TREATING ENDOMETRIOSIS AND PROVIDING EFFECTIVE CONTRACEPTION” (CHEMO RESEARCH, S.L., priority 2021, published 2025).

Experiments:
women [1] = test system: women
women [2] = conditions: at high dosages (5-15 mg/daily)

For `C[C@]12CCC3=C4CCC(=O)C=C4CC[C@H]3[C@@H]1CC[C@@]2(O)CC#N` [DNG, Dienogest], the “ovulation inhibition / ovarian activity” value (women [1]; 2 mg daily) is listed as “provides ovulation inhibition, but ovarian activity is not completely suppressed”.

For `C#C[C@]1(OC(C)=O)CC[C@H]2[C@@H]3CCC4=CC(=O)CC[C@@H]4[C@H]3CC[C@@]21C` [NETA, norethisterone acetate], the “dosage necessary for ovulation inhibition” value (women [1]; given continuously over 28 days) is listed as 0.35 mg/daily and the androgenic side effects (women [2]) is listed as “can produce androgenic side effects, such as acne, hirsutism, weight gain and voice changes of slight severity in some women”.
